Test results taken from ChEMBL document CHEMBL2057081, “Triterpenoid saponins from Xanthoceras sorbifolia Bunge and their inhibitory activity on human cancer cell lines” (Bioorg Med Chem Lett, 2012).

Legend:
Format in all cases: functional, cell-based
PC-3 = assay: Cytotoxicity against human PC3 cells by MTT assay
A549 = assay: Cytotoxicity against human A549 cells by MTT assay
[1] = Cytotoxicity against human A375-S2 cells by MTT assay
HEp-2 = assay: Cytotoxicity against human Hep2 cells by MTT assay
HT-1080 = assay: Cytotoxicity against human HT1080 cells by MTT assay
HeLa = assay: Cytotoxicity against human HeLa cells by MTT assay
HepG2 = assay: Cytotoxicity against human HepG2 cells by MTT assay
[2] = Cytotoxicity against human MDA231 cells by MTT assay; settings: MDA-MB-231
MCF7 = assay: Cytotoxicity against human MCF7 cells by MTT assay
BGC-823 = assay: Cytotoxicity against human BGC823 cells by MTT assay

| Structure (SMILES) | IC50 (PC-3) | IC50 (A549) | IC50 [1] | IC50 (HEp-2) | IC50 (HT-1080) | IC50 (HeLa) | IC50 (HepG2) | IC50 [2] | IC50 (MCF7) | IC50 (BGC-823) |
| --- | --- | --- | --- | --- | --- | --- | --- | --- | --- | --- |
| C/C=C(/C)C(=O)O[C@@H]1[C@@H](O)[C@H](O[C@H]2CC[C@]3(C)[C@H]4CC=C5[C@@H]6CC(C)(C)[C@@H](O)[C@H](O)[C@]6(CO[C@@H]6O[C@H](CO[C@@H]7O[C@H](CO)[C@@H](O)[C@H](O)[C@H]7O)[C@@H](O)[C@H](O)[C@H]6O)C(=O)C[C@@]5(C)[C@]4(C)CC[C@H]3C2(C)C)O[C@H](CO[C@@H]2O[C@H](CO)[C@@H](O)[C@H](O)[C@H]2O)[C@H]1O [SORBIFOLIASIDE E] | > 100 µM | > 100 µM | > 100 µM | > 100 µM | > 100 µM | > 100 µM | > 100 µM | > 100 µM | > 100 µM | > 100 µM |
| C/C=C(/C)C(=O)O[C@@H]1[C@@H](O)[C@H](O[C@H]2[C@H](OC(C)=O)[C@]3(CO)[C@H](O)C[C@]4(C)C(=CC[C@@H]5[C@@]6(C)CC[C@H](O[C@@H]7O[C@H](C(=O)O)[C@@H](O)[C@H](O)[C@H]7O[C@@H]7O[C@H](CO)[C@@H](O)[C@H](O)[C@H]7O)[C@](C)(CO)[C@@H]6CC[C@]54C)[C@@H]3CC2(C)C)O[C@H](C)[C@@H]1OC(=O)/C(C)=C\C [BUNKANKASAPONIN B] | 2.58 µM | 3.03 µM | 4.14 µM | 4.72 µM | 1.14 µM | 4.03 µM | 4.03 µM | 2.22 µM | 2.46 µM | 2.5 µM |
| CC1(C)C[C@H]2C3=CC[C@@H]4[C@@]5(C)CC[C@H](O[C@@H]6O[C@H](CO[C@@H]7O[C@H](CO)[C@@H](O)[C@H](O)[C@H]7O)[C@@H](O)[C@H](O)[C@H]6O[C@@H]6O[C@H](CO)[C@@H](O)[C@H](O)[C@H]6O)C(C)(C)[C@@H]5CC[C@@]4(C)[C@]3(C)CC(=O)[C@@]2(CO[C@@H]2O[C@H](CO[C@@H]3O[C@H](CO)[C@@H](O)[C@H](O)[C@H]3O)[C@@H](O)[C@H](O)[C@H]2O)[C@@H](O)[C@@H]1O [SORBIFOLIASIDE C] | > 100 µM | > 100 µM | > 100 µM | > 100 µM | > 100 µM | > 100 µM | > 100 µM | > 100 µM | > 100 µM | > 100 µM |
| C/C=C(/C)C(=O)O[C@@H]1[C@@H](O)[C@H](O[C@H]2[C@H](OC(C)=O)[C@]3(CO)[C@H](O)C[C@]4(C)C(=CC[C@@H]5[C@@]6(C)CC[C@H](O[C@@H]7O[C@H](C(=O)O)[C@@H](O)[C@H](O)[C@H]7O[C@@H]7O[C@H](CO)[C@@H](O)[C@H](O)[C@H]7O)[C@](C)(CO)[C@@H]6CC[C@]54C)[C@@H]3CC2(C)C)O[C@H](C)[C@@H]1OC(C)=O [BUNKANKASAPONIN A] | 13.1 µM | 41 µM | 18.1 µM | 17.6 µM | 16.3 µM | 22.2 µM | 22.2 µM | 12.2 µM | 12.7 µM | 17.5 µM |
| C[C@@H]1O[C@@H](O[C@H]2[C@H](OC[C@@]34CC[C@]5(C)C(=CC[C@@H]6[C@@]7(C)CC[C@H](O[C@@H]8O[C@H](CO[C@@H]9O[C@H](CO)[C@@H](O)[C@H](O)[C@H]9O)[C@@H](O)[C@H](O)[C@H]8O)C(C)(C)[C@@H]7CC[C@]65C)[C@@H]3CC(C)(C)[C@@H](O)[C@@H]4O)O[C@H](CO[C@@H]3O[C@H](CO)[C@@H](O)[C@H](O)[C@H]3O)[C@@H](O)[C@@H]2O)[C@H](O)[C@H](O)[C@H]1O [XANIFOLIA O54] | > 100 µM | > 100 µM | > 100 µM | > 100 µM | > 100 µM | > 100 µM | > 100 µM | > 100 µM | > 100 µM | > 100 µM |
| O=c1[nH]cc(F)c(=O)[nH]1 [FLUOROURACIL] | 35.8 µM | 31.5 µM | 9.92 µM | 24.6 µM | 3.06 µM | 10.4 µM | 10.5 µM | 31.6 µM | 24.6 µM | 15.7 µM |
| C/C=C(/C)C(=O)O[C@@H]1[C@@H](O)[C@H](O[C@H]2CC[C@]3(C)[C@H]4CC=C5[C@@H]6CC(C)(C)[C@@H](O)[C@H](O)[C@]6(CO[C@@H]6O[C@H](CO[C@@H]7O[C@H](CO)[C@@H](O)[C@H](O)[C@H]7O)[C@@H](O)[C@H](O)[C@H]6O)CC[C@@]5(C)[C@]4(C)CC[C@H]3C2(C)C)O[C@H](CO[C@@H]2O[C@H](CO)[C@@H](O)[C@H](O)[C@H]2O)[C@H]1O [SORBIFOLIASIDE D] | > 100 µM | > 100 µM | > 100 µM | > 100 µM | > 100 µM | > 100 µM | > 100 µM | > 100 µM | > 100 µM | > 100 µM |
| C/C=C(/C)C(=O)O[C@@H]1[C@@H](O)[C@H](O[C@H]2[C@H](O)[C@]3(COC(C)=O)[C@H](O)C[C@]4(C)C(=CC[C@@H]5[C@@]6(C)CC[C@H](O[C@@H]7O[C@H](C(=O)O)[C@@H](O)[C@H](O)[C@H]7O[C@@H]7O[C@H](CO)[C@@H](O)[C@H](O)[C@H]7O)[C@](C)(CO)[C@@H]6CC[C@]54C)[C@@H]3CC2(C)C)O[C@H](C)[C@@H]1OC(C)=O [BUNKANKASAPONIN C] | 92.5 µM | 76.8 µM | 23.3 µM | > 100 µM | > 100 µM | > 100 µM | 60.8 µM | 45.1 µM | 91.4 µM | 82.6 µM |
| CC1(C)C[C@H]2C3=CC[C@@H]4[C@@]5(C)CC[C@H](O[C@@H]6O[C@H](CO[C@@H]7O[C@H](CO)[C@@H](O)[C@H](O)[C@H]7O)[C@@H](O)[C@H](O)[C@H]6O)C(C)(C)[C@@H]5CC[C@@]4(C)[C@]3(C)CC[C@@]2(CO[C@@H]2O[C@H](CO[C@@H]3O[C@H](CO)[C@@H](O)[C@H](O)[C@H]3O)[C@@H](O)[C@H](O)[C@H]2O[C@@H]2O[C@H](CO)[C@@H](O)[C@H](O)[C@H]2O)[C@@H](O)[C@@H]1O [SORBIFOLIASIDE A] | > 100 µM | > 100 µM | > 100 µM | > 100 µM | > 100 µM | > 100 µM | > 100 µM | > 100 µM | > 100 µM | > 100 µM |
| CC1(C)C[C@H]2C3=CC[C@@H]4[C@@]5(C)CC[C@H](O[C@@H]6O[C@H](CO[C@@H]7O[C@H](CO)[C@@H](O)[C@H](O)[C@H]7O)[C@@H](O)[C@H](O)[C@H]6O)C(C)(C)[C@@H]5CC[C@@]4(C)[C@]3(C)CC(=O)[C@@]2(CO[C@@H]2O[C@H](CO[C@@H]3O[C@H](CO)[C@@H](O)[C@H](O)[C@H]3O)[C@@H](O)[C@H](O)[C@H]2O[C@@H]2O[C@H](CO)[C@@H](O)[C@H](O)[C@H]2O)[C@@H](O)[C@@H]1O [SORBIFOLIASIDE B] | > 100 µM | > 100 µM | > 100 µM | > 100 µM | > 100 µM | > 100 µM | > 100 µM | > 100 µM | > 100 µM | > 100 µM |
| C/C=C(/C)C(=O)O[C@@H]1[C@@H](O)[C@H](O[C@H]2[C@H](OC(C)=O)[C@]3(CO)[C@H](O)C[C@]4(C)C(=CC[C@@H]5[C@@]6(C)CC[C@H](O[C@@H]7O[C@H](C(=O)O)[C@@H](O)[C@H](O)[C@H]7O[C@@H]7O[C@H](CO)[C@@H](O)[C@H](O)[C@H]7O)C(C)(C)[C@@H]6CC[C@]54C)[C@@H]3CC2(C)C)O[C@H](C)[C@@H]1OC(=O)/C(C)=C\C [BUNKANKASAPONIN F] | 2.28 µM | 5.76 µM | 5.22 µM | 4.97 µM | 1.75 µM | 4.97 µM | 2.45 µM | 3.24 µM | 4.3 µM | 11.3 µM |
| C/C=C(/C)C(=O)O[C@@H]1[C@@H](O)[C@H](O[C@H]2CC[C@]3(C)[C@H]4CC=C5[C@@H]6CC(C)(C)[C@@H](O)[C@H](O)[C@]6(CO[C@@H]6O[C@H](CO[C@@H]7O[C@H](CO)[C@@H](O)[C@H](O)[C@H]7O)[C@@H](O)[C@H](O)[C@H]6O[C@@H]6O[C@H](CO)[C@@H](O)[C@H](O)[C@H]6O)CC[C@@]5(C)[C@]4(C)CC[C@H]3C2(C)C)O[C@H](CO[C@@H]2O[C@H](CO)[C@@H](O)[C@H](O)[C@H]2O)[C@H]1OC(C)=O [SORBIFOLIASIDE F] | > 100 µM | > 100 µM | > 100 µM | > 100 µM | > 100 µM | > 100 µM | > 100 µM | > 100 µM | > 100 µM | > 100 µM |
| C/C=C(/C)C(=O)O[C@@H]1[C@@H](O)[C@H](O[C@H]2[C@H](O)[C@]3(COC(C)=O)[C@H](O)C[C@]4(C)C(=CC[C@@H]5[C@@]6(C)CC[C@H](O[C@@H]7O[C@H](C(=O)O)[C@@H](O)[C@H](O)[C@H]7O[C@@H]7O[C@H](CO)[C@@H](O)[C@H](O)[C@H]7O)[C@](C)(CO)[C@@H]6CC[C@]54C)[C@@H]3CC2(C)C)O[C@H](C)[C@@H]1OC(=O)/C(C)=C\C [BUNKANKASAPONIN D] | 13.2 µM | 31.7 µM | 20.4 µM | > 100 µM | > 100 µM | 55.5 µM | 33.1 µM | 21.8 µM | 49.4 µM | 23.9 µM |
